In this experiment the target is T1, Src recombinant enzyme, N-terminally His6 tagged full-length human protein (Homo sapiens, UniProt P12931).
T1 construct: Src recombinant enzyme was purchased as N-terminally His6 tagged full-length human protein; His6 (N); purchased
Kind of experiment: SRC kinase inhibition assay (AlphaScreen). The class given is biochemical. Particulars: 80 μM ATP, 90 minutes at 30 degree Celsius. Here is the method: Protocol for SRC Kinase Inhibition Assay. Compounds of the invention were tested for in vitro activity in the following assay: A biotin labeled peptide was used as substrate (amino acid sequence: Biotin-[…]). Src recombinant enzyme was purchased as N-terminally His6 tagged full-length human protein. The 15 μL assay reactions were run in Greiner brand white 384-well low volume plates. […] Compounds were added in a volume of 100 nL from dilution series made up in DMSO, positive and negative control reactions receiving the same volume DMSO without compounds. The plates were sealed with adhesive seals and incubated for 90 minutes at 30 degree Celsius. The reactions were stopped with the detection reagents added at the same time. Product formation was quantified as photochemiluminescence between PerkinElmer AlphaScreenTM beads, using Streptavidin-coated donor and anti-phosphotyrosine (P-[…]) acceptor beads. […] Plates were incubated for 5 hours before being read on a PerkinElmer EnVisionTM plate reader in HTS AlphascreenTM mode. IC50 values were obtained by calculating percent inhibition (% I) for each reaction relative to controls on the same plate (% [SMILES] where CN/CP are the averages of the negative/positive reactions, respectively), then fitting the % I data vs. compound concentration [I] to % I=([…])))) where A is the lower asymptote, B is the upper asymptote, C is the IC50 value, and D is the slope factor.
Background: In Alpha technology, singlet oxygen from a donor bead excites a nearby acceptor bead.

T1 sequence (P12931 whole entry): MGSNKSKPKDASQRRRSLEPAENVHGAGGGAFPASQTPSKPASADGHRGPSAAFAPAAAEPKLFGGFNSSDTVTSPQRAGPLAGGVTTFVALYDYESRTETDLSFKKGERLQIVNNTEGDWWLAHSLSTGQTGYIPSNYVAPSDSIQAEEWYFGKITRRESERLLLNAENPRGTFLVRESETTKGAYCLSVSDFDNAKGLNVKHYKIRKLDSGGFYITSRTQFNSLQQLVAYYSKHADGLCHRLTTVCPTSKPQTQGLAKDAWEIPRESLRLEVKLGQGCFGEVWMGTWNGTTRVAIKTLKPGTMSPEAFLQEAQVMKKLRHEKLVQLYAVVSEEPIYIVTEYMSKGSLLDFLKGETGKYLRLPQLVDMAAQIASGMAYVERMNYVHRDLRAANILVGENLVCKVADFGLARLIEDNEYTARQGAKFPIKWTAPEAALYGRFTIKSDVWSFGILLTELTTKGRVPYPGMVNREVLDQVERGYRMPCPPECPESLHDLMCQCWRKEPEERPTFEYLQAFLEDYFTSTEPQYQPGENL

As to `Cc1ccc(-c2nn(C(C)(C)CNC(=O)c3cccc(F)n3)c3ncnc(N)c23)cc1` [Example 41], the IC50 (commonly the point on the concentration scale where inhibition reaches its midpoint) was 0.1 to 1 µM.

`Cc1ccc(-c2nn(C(C)(C)CNC(=O)c3cc(-c4ccco4)on3)c3ncnc(N)c23)cc1` [Example 23]: the IC50 is 0.001 to 0.1 µM. In the case of `CC(=N)NCC(C)(C)n1nc(-c2ccc(C)cc2)c2c(N)ncnc21` [Example 80], the IC50 lay in the range of 0.1 to 1 µM. The same measure for `Cc1ccc(-c2nn(C(C)(C)CNC(=O)c3ccc(N4CCCCC4)cc3)c3ncnc(N)c23)cc1` [Example 21]: 0.1 to 1 µM. The same measure for `Cc1ccc(-c2nn(C(C)(C)CNC(=O)c3cnn(-c4ccc(F)cc4)c3C(F)(F)F)c3ncnc(N)c23)cc1` [Example 28]: 0.001 to 0.1 µM; for `Cc1ccc(-c2nn(C(C)(C)CNC(=O)c3cnc4ccccc4n3)c3ncnc(N)c23)cc1` [Example 51]: 0.1 to 1 µM; for `Cc1ccc(-c2nn(C(C)(C)CNC(=O)c3ccc(CN)cc3)c3ncnc(N)c23)cc1` [13 (compound 13C)]: 0.001 to 0.1 µM. For `Cc1ccc(-c2nn(C(C)(C)CNC(=O)c3ncccn3)c3ncnc(N)c23)cc1` [Example 58], the IC50 was in the range of 0.001 to 0.1 µM. Under `Cc1ccc(-c2nn(C(C)(C)CNC(=O)CCCc3ccccc3)c3ncnc(N)c23)cc1` [Example 20] stands 0.1 to 1 µM.

With `Cc1ccc(-c2nn(C(C)(C)CNC(=O)c3cc(C)nn3Cc3ccc(F)cc3)c3ncnc(N)c23)cc1` [Example 27], the IC50 fell in the range of 0.1 to 1 µM. In the case of `Cc1ccc(-c2nn(C(C)(C)CNC(=O)c3ccc(C)cn3)c3ncnc(N)c23)cc1` [Example 72], the IC50 fell in the range of 0.001 to 0.1 µM.

Consider `Cc1ccc(-c2nn(C(C)(C)CNC(=O)c3cccc(N4CCCCC4)c3)c3ncnc(N)c23)cc1` [Example 22], for which the IC50 lay within 0.1 to 1 µM. Under `Cc1ccc(-c2nn(C(C)(C)CNC3=NCCN3)c3ncnc(N)c23)cc1` [Example 78] stands 0.1 to 1 µM; under `Cc1ccc(-c2nn(C(C)(C)CNC(=O)c3cccc(Br)n3)c3ncnc(N)c23)cc1` [Example 40], 0.1 to 1 µM; under `CC(=O)CCC(=O)NCC(C)(C)n1nc(-c2ccc(C)cc2)c2c(N)ncnc21` [Example 16], 1 to 10 µM. Under `Cc1ccc(-c2nn(C(C)(C)CNC(=O)c3cccc(N4CCOCC4)c3)c3ncnc(N)c23)cc1` [Example 18] stands 0.1 to 1 µM; under `Cc1ccc(-c2nn(C(C)(C)CNC(=O)c3nc(Cl)ccc3Cl)c3ncnc(N)c23)cc1` [Example 48], 0.1 to 1 µM; under `Cc1ccc(-c2nn(C(C)(C)CNC(=O)c3nc(Cl)ccc3Br)c3ncnc(N)c23)cc1` [Example 49], 1 to 10 µM.

For the compound `CC(=O)CCCC(=O)NCC(C)(C)n1nc(-c2ccc(C)cc2)c2c(N)ncnc21` [Example 31], the IC50 was 0.1 to 1 µM. `Cc1ccc(-c2nn(C(C)(C)CNC(=O)c3cc(CN4CCCCC4)ccn3)c3ncnc(N)c23)cc1` [Example 82]: the IC50 fell in the range of 0.001 to 0.1 µM. Take `Cc1ccc(-c2nn(C(C)(C)CNC(=O)c3ccccc3-n3ccnc3)c3ncnc(N)c23)cc1` [Example 14]: the IC50 fell in the range of 0.1 to 1 µM. `Cc1ccc(-c2nn(C(C)(C)CNC(=O)c3ccc(F)cc3)c3ncnc(N)c23)cc1` [Example 53]: the IC50 lay in the range of 0.1 to 1 µM. Under `Cc1ccc(-c2nn(C(C)(C)CNC(=O)c3ccc(Cl)nc3Cl)c3ncnc(N)c23)cc1` [Example 47] stands 0.1 to 1 µM.

Take `Cc1ccc(-c2nn(C(C)(C)CNC(=O)c3ccnc(Cl)n3)c3ncnc(N)c23)cc1` [Example 44]: the IC50 was in the range of 0.1 to 1 µM.

In the case of `Cc1ccc(-c2nn(C(C)(C)CNC(=O)Cc3ccccc3)c3ncnc(N)c23)cc1` [Example 9], the IC50 was in the range of 1 to 10 µM.

For `Cc1ccc(-c2nn(C(C)(C)CNC(=O)c3cc(-c4ccc(F)cc4)ncn3)c3ncnc(N)c23)cc1` [Example 24], the IC50 fell in the range of 1 to 10 µM. As to `Cc1ccc(-c2nn(C(C)(C)CNC(=O)CCCCCNC(=O)OCc3ccccc3)c3ncnc(N)c23)cc1` [Example 15], the IC50 was 0.1 to 1 µM. With `Cc1ccc(-c2nn(C(C)(C)CNC(N)=S)c3ncnc(N)c23)cc1` [6 (compound 6B)], the IC50 lay within 0.001 to 0.1 µM.

Take `Cc1ccc(-c2nn(C(C)(C)CNC(=O)c3cnn(-c4cccc(Cl)c4)c3C(F)(F)F)c3ncnc(N)c23)cc1` [Example 26]: the IC50 was in the range of 0.001 to 0.1 µM. The same measure for `CCN(CC)c1ccc(C(=O)NCC(C)(C)n2nc(-c3ccc(C)cc3)c3c(N)ncnc32)cc1` [Example 38]: 0.1 to 1 µM; for `Cc1ccc(-c2nn(C(C)(C)CNC(=O)c3cccc(C#N)c3)c3ncnc(N)c23)cc1` [Example 34]: 0.1 to 1 µM; for `Cc1ccc(-c2nn(C(C)(C)CNC(=O)c3cc(N4CCCCC4)ccn3)c3ncnc(N)c23)cc1` [69 (compound 69C)]: 0.001 to 0.1 µM.

Consider `CC(=O)NCC(C)(C)n1nc(-c2ccc(C)cc2)c2c(N)ncnc21` [Example 2], for which the IC50 fell in the range of 0.1 to 1 µM. For the compound `Cc1ccc(-c2nn(C(C)(C)CNC(C)C)c3ncnc(N)c23)cc1` [Example 8], the IC50 lay within 0.1 to 1 µM. Take `CC(=O)CCCCC(=O)NCC(C)(C)n1nc(-c2ccc(C)cc2)c2c(N)ncnc21` [Example 30]: the IC50 lay within 0.1 to 1 µM. Take `Cc1ccc(-c2nn(C(C)(C)CNC(=O)c3ccncc3)c3ncnc(N)c23)cc1` [Example 67]: the IC50 fell in the range of 1 to 10 µM. As to `COCCC(=O)NCC(C)(C)n1nc(-c2ccc(C)cc2)c2c(N)ncnc21` [Example 17], the IC50 was in the range of 0.001 to 0.1 µM. Under `Cc1ccc(-c2nn(C(C)(C)CNC(=O)CCN3CCOCC3)c3ncnc(N)c23)cc1` [Example 37] stands 0.1 to 1 µM; under `COCCOc1ccnc(C(=O)NCC(C)(C)n2nc(-c3ccc(C)cc3)c3c(N)ncnc32)c1` [Example 89], 0.001 to 0.1 µM.

`Cc1ccc(-c2nn(C(C)(C)CNC(=O)CCCc3ccc4c(c3)OCCO4)c3ncnc(N)c23)cc1` [Example 36]: the 50% inhibitory concentration (IC50) lay in the range of 0.1 to 1 µM. As to `CNCC(C)(C)n1nc(-c2ccc(C)cc2)c2c(N)ncnc21` [4 (compound 4C)], the IC50 lay within 0.1 to 1 µM. Under `CC(=O)c1ccc(OCC(=O)NCC(C)(C)n2nc(-c3ccc(C)cc3)c3c(N)ncnc32)cc1` [Example 25] stands 1 to 10 µM; under `Cc1ccc(-c2nn(C(C)(C)CNC(=O)CCOc3ccccc3)c3ncnc(N)c23)cc1` [Example 39], 0.1 to 1 µM. Under `Cc1ccc(-c2nn(C(C)(C)CNc3ncccn3)c3ncnc(N)c23)cc1` [Example 88] stands 0.1 to 1 µM; under `Cc1ccc(-c2nn(C(C)(C)CNC(=O)c3cccc(F)c3)c3ncnc(N)c23)cc1` [Example 55], 1 to 10 µM; under `Cc1ccc(-c2nn(C(C)(C)CNC(=O)CC#N)c3ncnc(N)c23)cc1` [Example 19], 0.001 to 0.1 µM. Turning to `Cc1ccc(-c2nn(C(C)(C)CN(C)C)c3ncnc(N)c23)cc1` [Example 3], the IC50 was in the range of 1 to 10 µM. `Cc1ccc(-c2nn(C(C)(C)CNC(=O)c3ccnnc3)c3ncnc(N)c23)cc1` [Example 46]: the IC50 lay within 0.1 to 1 µM. The same measure for `CCNC(=O)NCC(C)(C)n1nc(-c2ccc(C)cc2)c2c(N)ncnc21` [Example 7]: 0.001 to 0.1 µM; for `Cc1ccc(-c2nn(C(C)(C)CNS(=O)(=O)c3ccccn3)c3ncnc(N)c23)cc1` [68 (compound 68B)]: 0.1 to 1 µM; for `Cc1ccc(-c2nn(C(C)(C)CNC(=O)c3cnn(-c4ccc(Br)cc4)c3C(F)(F)F)c3ncnc(N)c23)cc1` [Example 29]: 0.1 to 1 µM. Under `Cc1ccc(-c2nn(C(C)(C)CNC(=O)c3cc(N4CCOCC4)ccn3)c3ncnc(N)c23)cc1` [70 (compound 70C)] stands 0.1 to 1 µM; under `CCOc1ccc(C(=O)NCC(C)(C)n2nc(-c3ccc(C)cc3)c3c(N)ncnc32)cc1Cl` [Example 32], 0.1 to 1 µM. With `Cc1ccc(-c2nn(C(C)(C)CNC(=O)CCCCCN)c3ncnc(N)c23)cc1` [84 (compound 84C)], the IC50 is 0.1 to 1 µM.

As to `Cc1ccc(-c2nn(C(C)(C)CNC(=O)CCCN)c3ncnc(N)c23)cc1` [85 (compound 85C)], the IC50 was 0.1 to 1 µM.

For `Cc1ccc(-c2nn(C(C)(C)CNC(=O)CCCOCc3ccccc3)c3ncnc(N)c23)cc1` [Example 35], the IC50 lay within 0.1 to 1 µM. The same measure for `Cc1ccc(-c2nn(C(C)(C)CNC(=O)c3ccccc3F)c3ncnc(N)c23)cc1` [Example 54]: 0.1 to 1 µM; for `Cc1ccc(-c2nn(C(C)(C)CNC(=N)N)c3ncnc(N)c23)cc1` [5 (compound 5B)]: 0.001 to 0.1 µM. Under `Cc1ccc(-c2nn(C(C)(C)CNC(=O)c3cccn3C)c3ncnc(N)c23)cc1` [Example 33] stands 0.1 to 1 µM; under `Cc1ccc(-c2nn(C(C)(C)CNC(=O)c3cc(CN4CCOCC4)ccn3)c3ncnc(N)c23)cc1` [Example 83], 0.001 to 0.1 µM.

On to `Cc1ccc(-c2nn(C(C)(C)CNC(=N)NC#N)c3ncnc(N)c23)cc1` [Example 81], for which the IC50 is 0.001 to 0.1 µM.

Take `Cc1ccc(-c2nn(C(C)(C)CNC(=O)c3ccnc(Cl)c3)c3ncnc(N)c23)cc1` [Example 43]: the IC50 fell in the range of 0.1 to 1 µM.

Regarding `Cc1ccc(-c2nn(C(C)(C)CNC(=O)c3ccc(CCN)cc3)c3ncnc(N)c23)cc1` [10 (compound 10C)], the IC50 lay within 0.001 to 0.1 µM. Under `Cc1ccc(-c2nn(C(C)(C)CNC(=O)c3ccc(Br)cn3)c3ncnc(N)c23)cc1` [Example 45] stands 1 to 10 µM.

(Values after patent publication US8962830B2, “Protein kinase inhibitors and methods of treatment” (The Walter and Eliza Hall Institute of Medical Research, priority 2010, dated 2015).)
